In one assay the target is EGFR (human) (UniProt P00533). Conditions: nih3t3.
Another assay has as its target EGFR (UniProt P00533).

Chain of EGFR (human) (P00533 whole entry, looked up): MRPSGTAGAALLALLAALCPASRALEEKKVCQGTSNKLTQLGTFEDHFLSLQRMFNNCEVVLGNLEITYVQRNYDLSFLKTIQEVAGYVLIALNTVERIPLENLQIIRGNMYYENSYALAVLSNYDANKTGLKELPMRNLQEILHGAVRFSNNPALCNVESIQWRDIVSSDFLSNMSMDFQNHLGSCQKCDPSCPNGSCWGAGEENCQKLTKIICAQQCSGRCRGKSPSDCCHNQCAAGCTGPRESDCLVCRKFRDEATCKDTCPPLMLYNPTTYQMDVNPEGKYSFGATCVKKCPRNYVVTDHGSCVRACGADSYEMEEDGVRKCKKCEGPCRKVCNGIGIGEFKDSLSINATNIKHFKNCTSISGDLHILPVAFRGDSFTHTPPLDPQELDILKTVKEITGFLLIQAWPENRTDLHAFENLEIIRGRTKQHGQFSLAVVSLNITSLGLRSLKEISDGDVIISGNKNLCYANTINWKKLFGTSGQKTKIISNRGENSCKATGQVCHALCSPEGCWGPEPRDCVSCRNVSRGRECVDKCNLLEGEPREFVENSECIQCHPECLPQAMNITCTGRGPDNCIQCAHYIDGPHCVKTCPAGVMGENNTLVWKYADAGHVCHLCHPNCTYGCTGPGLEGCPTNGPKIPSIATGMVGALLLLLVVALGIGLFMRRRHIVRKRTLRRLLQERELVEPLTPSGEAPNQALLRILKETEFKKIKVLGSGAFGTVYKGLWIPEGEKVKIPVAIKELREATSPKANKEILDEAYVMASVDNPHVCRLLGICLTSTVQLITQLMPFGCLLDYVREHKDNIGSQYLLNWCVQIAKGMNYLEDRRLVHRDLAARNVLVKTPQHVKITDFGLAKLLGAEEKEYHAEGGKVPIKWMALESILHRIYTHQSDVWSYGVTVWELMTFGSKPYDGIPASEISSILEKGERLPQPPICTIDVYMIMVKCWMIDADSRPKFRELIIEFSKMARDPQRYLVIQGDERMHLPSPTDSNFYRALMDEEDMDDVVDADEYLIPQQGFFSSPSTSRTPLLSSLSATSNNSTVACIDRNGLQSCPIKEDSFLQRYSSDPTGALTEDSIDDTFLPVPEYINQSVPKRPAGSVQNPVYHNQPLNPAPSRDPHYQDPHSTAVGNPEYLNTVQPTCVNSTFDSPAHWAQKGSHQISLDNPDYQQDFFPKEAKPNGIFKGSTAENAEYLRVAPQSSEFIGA
Chain of EGFR (P00533 whole entry, looked up): as above

Take `Cc1ccc2c(c1)/C(=C/c1[nH]c(C)c(CCCN(C)C)c1C)C(=O)N2`: the IC50 was 25.4 µM at EGFR (human) and above 100 µM at EGFR.
In turn, `Cc1ccc2c(c1)/C(=C/c1[nH]cc(CCC(=O)O)c1C)C(=O)N2` showed an IC50 against EGFR (human) above 50 µM.
Turning to `Cc1[nH]c(/C=C2\C(=O)Nc3ccc(S(N)(=O)=O)cc32)c(C)c1CCCN(C)C`, the IC50 at EGFR (human) is 6.59 µM; against EGFR, above 100 µM.
For the molecule `Cc1[nH]c(/C=C2\C(=O)Nc3cccc(CCO)c32)c(C)c1CCCN(C)C`, the IC50 on EGFR (human) was 25.3 µM; against EGFR, above 100 µM.
`Cc1[nH]c(/C=C2\C(=O)Nc3cc(O)ccc32)c(C)c1CCC(=O)O`: at EGFR (human), the IC50 was above 50 µM.
For `Cc1[nH]c(/C=C2\C(=O)Nc3ccc(S(=O)(=O)N4CCOCC4)cc32)c(C)c1CCCN(C)C`, the results for the IC50 at EGFR (human) and on EGFR were 29.8 µM and above 100 µM, respectively.
On to `Cc1[nH]c(/C=C2\C(=O)Nc3ccccc32)c(C)c1CCCN(C)C`, for which the IC50 on EGFR (human) was 12.6 µM; on EGFR, above 100 µM.
As for `COc1ccc2c(c1)/C(=C/c1[nH]c(C)c(CCCN(C)C)c1C)C(=O)N2`, on EGFR, the IC50 is above 100 µM.
In turn, `Cc1c(CCC(=O)O)c[nH]c1/C=C1\C(=O)Nc2ccc(Cl)cc21` gave an IC50 against EGFR (human) of 12 µM.
Regarding `Cc1[nH]c(/C=C2\C(=O)Nc3ccc(Br)cc32)c(C)c1CCCN1CCOCC1`, the figures for the IC50 against EGFR (human) and against EGFR were 44.6 µM and above 100 µM, respectively.
Regarding `Cc1[nH]c(/C=C2\C(=O)Nc3cc(Cl)ccc32)c(C)c1CCCN(C)C`, the IC50 worked out at 25.4 µM against EGFR (human) and 86.6 µM on EGFR.
In turn, `Cc1[nH]c(/C=C2\C(=O)Nc3ccc(S(=O)(=O)NC(C)C)cc32)c(C)c1CCCN(C)C` gave an IC50 against EGFR above 100 µM.
Still for that read-out and setting: with `COc1ccc(-c2ccc3c(c2)NC(=O)/C3=C\c2[nH]c(C)c(CCCN3CCOCC3)c2C)cc1` the figure was above 100 µM.
Turning to `Cc1[nH]c(/C=C2\C(=O)Nc3ccc(Cl)cc32)c(C)c1CCCN(C)C`, the IC50 was 7.49 µM at EGFR (human) and above 100 µM against EGFR.
As for `Cc1[nH]c(/C=C2\C(=O)Nc3ccccc32)c(C)c1CCCN1CCOCC1`, the IC50 against EGFR (human) was above 50 µM; on EGFR, above 100 µM.
As to `COc1ccccc1-c1ccc2c(c1)NC(=O)/C2=C\c1[nH]c(C)c(CCCN2CCOCC2)c1C`, the IC50 on EGFR was above 100 µM.
With `Cc1[nH]c(/C=C2\C(=O)Nc3cc(-c4ccccc4)ccc32)c(C)c1CCCN(C)C`, the IC50 against EGFR (human) is 4 µM; against EGFR, above 100 µM.
At EGFR (human), `Cc1cccc2c1/C(=C/c1[nH]cc(CCC(=O)O)c1C)C(=O)N2` came in with an IC50 above 50 µM.
As for `Cc1cccc2c1/C(=C/c1[nH]c(C)c(CCC(=O)O)c1C)C(=O)N2`, the IC50 against EGFR (human) is above 50 µM.
On the same count and under the same terms, with `Cc1ccc2c(c1)/C(=C/c1[nH]c(C)c(CCC(=O)O)c1C)C(=O)N2` the figure was above 50 µM; with `Cc1[nH]c(/C=C2\C(=O)Nc3ccc(I)cc32)c(C)c1CCC(=O)O`, above 50 µM.
For `COc1ccc(-c2ccc3c(c2)NC(=O)/C3=C\c2[nH]c(C)c(CCCN(C)C)c2C)cc1`, the IC50 against EGFR was above 100 µM.
For `Cc1[nH]c(/C=C2\C(=O)Nc3ccc(Br)cc32)c(C)c1CCCN(C)C`, the IC50 is 4.1 µM against EGFR (human) and above 100 µM against EGFR.
The molecule `Cc1c(CCC(=O)O)c[nH]c1/C=C1\C(=O)Nc2ccc(Br)cc21` displayed an IC50 on EGFR (human) above 50 µM.
The same measure, in the same setting: the same measure for `Cc1c(CCC(=O)O)c[nH]c1/C=C1\C(=O)Nc2cc(Br)ccc21`: above 50 µM; for `Cc1[nH]c(/C=C2\C(=O)Nc3cc(-c4ccccc4)ccc32)c(C)c1CCC(=O)O`: 32.7 µM.
Regarding `Cc1cccc2c1/C(=C/c1[nH]c(C)c(CCCN(C)C)c1C)C(=O)N2`, the results for the IC50 at EGFR (human) and at EGFR were 20.2 µM and above 100 µM, respectively.
For `COc1ccc2c(c1)NC(=O)/C2=C\c1[nH]c(C)c(CCCN(C)C)c1C`, the IC50 at EGFR was above 100 µM.
Turning to `COc1cccc(-c2ccc3c(c2)NC(=O)/C3=C\c2[nH]c(C)c(CCCN3CCOCC3)c2C)c1`, the IC50 on EGFR was above 100 µM.
For `Cc1c(CCC(=O)O)c[nH]c1/C=C1\C(=O)Nc2cc(Cl)ccc21`, the IC50 at EGFR (human) is above 50 µM.
At EGFR (human), `Cc1c(CCC(=O)O)c[nH]c1/C=C1\C(=O)Nc2cc(-c3ccccc3)ccc21` yielded an IC50 of 30.5 µM.
As to `Cc1c(CCC(=O)O)c[nH]c1/C=C1\C(=O)Nc2ccccc21`, the IC50 against EGFR (human) is above 50 µM.
`Cc1[nH]c(/C=C2\C(=O)Nc3ccc(Cl)cc32)c(C)c1CCC(=O)O` came in with an IC50 against EGFR (human) above 50 µM.
Regarding `Cc1[nH]c(/C=C2\C(=O)Nc3ccc(S(=O)(=O)N(C)C)cc32)c(C)c1CCCN(C)C`, the IC50 at EGFR (human) is 11.2 µM; on EGFR, above 100 µM.
With `Cc1[nH]c(/C=C2\C(=O)Nc3ccc(Br)cc32)c(C)c1CCC(=O)O`, at EGFR (human), the IC50 was above 50 µM.
For the molecule `Cc1[nH]c(/C=C2\C(=O)Nc3cc(-c4ccccc4)ccc32)c(C)c1CCCN1CCOCC1`, the IC50 against EGFR (human) is above 50 µM; at EGFR, above 100 µM.
Take `Cc1c(CCC(=O)O)c[nH]c1/C=C1\C(=O)Nc2ccc(I)cc21`: at EGFR (human), the IC50 was above 50 µM.

One may read the IC50 as the midpoint of a concentration-inhibition curve.

(Values after the Kinase Knowledgebase extract (Sharma et al. 2016).)
